assay: Human HepG2 cell viability assay in 384 well format; type: toxicity, cell-based; design: dose 125 nL, time 70.5 hour; cytotoxicity at 70.5 h: concentration not given beside the values; details: HepG2 cells, read-out: Inhibition

Row | SMILES | cytotoxicity at 70.5 h [%]
1 | Cc1cc(C(=O)NCCn2nc3ccccn3c2=O)[nH]n1 | -13.9
2 | Cc1cccc(NC(=O)[C@@H]2CCCN2Cc2ccc(C#N)cc2F)n1 | -0.253
3 | Cc1cccc(NC(=O)N2CCN(Cc3noc(C4CC4)n3)CC2)c1 | 2.6
4 | COc1ccccc1OC1CN(C(=O)Cc2c(C)nc(C)[nH]c2=O)C1 | -2.42
5 | C[C@@H]1CN(Cc2cn(C)nc2-c2ccccc2F)C[C@H](C)O1 | -11.3
6 | Cc1cc(-c2n[nH]c3c2CN(S(=O)(=O)c2ccsc2)CC3)c(C)o1 | -9.27
7 | CCn1cc(S(=O)(=O)Nc2nc3c(s2)CCCC3)cn1 | -5.28
8 | CC(C)N(C)Cc1nnc2n1CCCN(C(=O)C1CCCO1)C2 (stereo not drawn) | -7.64
9 | CNc1cc(C)nc(C2COCCN2Cc2csc(C)n2)n1 (stereo not drawn) | -9.53
10 | CC(=O)N1CCC2(CC1)C(=O)N(CC1CC1)c1ccccc12 | -11.9
11 | CCCC(=O)NCCc1cc(NC)nc(-c2ccccn2)n1 | 20.8
12 | COCCN1CCN(c2ccc(C)nn2)Cc2ccc(C)nc21 | -3.87
13 | Cc1ccc(F)cc1CC(=O)N1CC[C@@]2(O)CCNC[C@H]2C1 | -5.81
14 | CCc1ncc2c(n1)CN(CC(O)COc1ccc(C#N)cc1)CC2 (stereo not drawn) | -0.808
15 | CC(=O)N1CCC(NC(=O)c2cc(Cl)ccc2-n2cnnn2)CC1 | -6.61
16 | Cc1cc2n(n1)CCN(c1nc(N)nc3c1CCNCC3)C2 | -13.6
17 | CC(=O)N1CCC2(CC1)CC(C(C)C)=NO2 | -9.06
18 | CC(C)C(=O)N1CCCC(Cc2ncccn2)C1 (stereo not drawn) | -1.65
19 | Cc1cc(S(=O)(=O)Nc2cccc(I)c2)sc1C(=O)O | 13.9
20 | O=C(C1CCCC1)N1CC2(CCN(C3COC3)C2)OCc2ccccc21 (stereo not drawn) | -17.3
21 | COCCOC(=O)N1CCN2C[C@@H](CO)[C@H](c3ccccc3)[C@H]2C1 | 0.912
22 | Cc1ccnc(NCCNC(=O)c2ccccc2NCC(=O)O)c1 | 5.62
23 | O=C1COc2ccccc2N1CCCn1cnnn1 | -9.54

Row | SMILES | cytotoxicity at 70.5 h [%]
24 | c1cc(CN2CCC(n3cc(CN4CCCC4)nn3)CC2)cs1 | -5.26
25 | O=C(c1ccc2c(c1)COC2)N1CCN(CC2CC2)CC1 | -7.78
26 | CCOC(=O)C1CCN(C(=O)c2cnn(-c3ccc(C)cc3)c2N)CC1 | -5.44
27 | COc1ccccc1-c1nc(C(=O)N(C)C)n2ccncc12 | -8.75
28 | Cn1nccc1-c1nnn2c1COCC(CNC1CCOCC1)C2 (stereo not drawn) | 0.0787
29 | c1cc(C2CN(C3CCCCC3)C2)n[nH]1 | 17.8
30 | COC(=O)N1CCC(Nc2cccc(F)c2C#N)CC1 | -3.28
31 | CNC(=O)CN1CCCC12CCN(C(=O)c1ccoc1)CC2 | -11.1
32 | O=C(Nc1ccccn1)c1nc(N2CCCC2)ncc1Cl | -6.57
33 | CC(=O)N1C[C@H]2CCCC(N3CCN(c4ncccn4)CC3)[C@H]2C1 (stereo partly drawn) | 11.4
34 | CN1CCOC(CNCc2cccc(OCC(F)(F)F)c2)C1 (stereo not drawn) | -1.74
35 | Cc1cc(C(=O)NCC(C)N2CCc3ccccc32)no1 (stereo not drawn) | 15.4
36 | N[C@@H]1CCC[C@@H](Oc2ccc(F)cc2Oc2ccccc2)[C@@H]1O | 20.8
37 | Cc1cc(Cc2ccc(S(=O)(=O)N3CCCC3)cc2)c(=O)[nH]n1 | -23.4
38 | Cc1ccc2c(-c3nc4c([nH]3)CCNC4C(=O)O)cccc2n1 (stereo not drawn) | -0.899
39 | CCCN(Cc1nc2ccccc2[nH]1)Cc1ccccc1OC | -4
40 | N#Cc1cccc(OCC(=O)N(Cc2ccncc2)C2CC2)c1 | -10.3
41 | CC1=N[C@@]2(CC[C@@H]3CN(CC(=O)N(C)C)C[C@@H]32)C(=O)N1CC(C)C | 52.3
42 | CN(C)C(=O)NC1COC2(CCN(C(=O)c3ccc(Cl)cc3)CC2)C1 (stereo not drawn) | -8.31
43 | CC(C)NC(=O)COc1nc(C(C)C)no1 | 18
44 | O=C(Cn1c(=O)n(Cc2ccco2)c2ncccc21)NC1CCCC1 | -7.12
45 | Cc1nn(CC(=O)Nc2ccon2)cc1Br | -10.2
46 | CC(O)CCN(C)S(=O)(=O)Cc1ccc(Br)cc1 (stereo not drawn) | 23.3

Row | SMILES | cytotoxicity at 70.5 h [%]
47 | Cc1nn(C)c(C)c1C1CCCN1C(=O)c1ccnc(N(C)C)c1 (stereo not drawn) | -14.3
48 | Cc1ncccc1OC1(C(=O)NCCC2CCCN2C)CCNCC1 (stereo not drawn) | 13.7
49 | Cc1ccc(C(=O)NCCNCC2CNc3ccnn3C2)cc1F (stereo not drawn) | 1.33
50 | CCN(CC)C(=O)CN(C)CCn1nc2ccccn2c1=O | -4.24
51 | CS(=O)(=O)NCC1CCCN(C(=O)Nc2ccccc2F)C1 (stereo not drawn) | 1.05
52 | O=C(Cn1nc2c(cc1=O)CCCC2)N[C@@H](Cc1ccccc1)C(=O)O | 6.84
53 | CC(NC(=O)c1csnn1)c1ccc(OCC2CC2)c(F)c1 (stereo not drawn) | 14.5
54 | CC(C)CN1CC(O)CN(S(=O)(=O)c2ccc(F)cc2)CC1=O (stereo not drawn) | -9.29
55 | NC(=O)CN1C[C@@H](c2ccccc2F)[C@@]2(CCCCC(=O)N2)C1 | -7.09
56 | CC(Cn1cc(Br)cn1)C(=O)Nc1ccn(C)n1 (stereo not drawn) | 7.88
57 | CC(C)Cc1ccc(S(=O)(=O)NCCCN2CCNC(=O)C2)cc1 | -3.66
58 | CC1CCN(S(=O)(=O)c2cccn(CC(=O)N3CCOCC3)c2=O)CC1 | -16
59 | c1cc(CN2CCC(CCn3cccn3)CC2)cc(Cn2cccn2)c1 | -2.62
60 | O=C(NC1CCC(O)CC1)c1cnc2c(cnn2C2CCCC2)c1 (stereo not drawn) | -0.508
61 | Cc1cccc(CN2CC[C@@H]3[C@@H]2CCN3C(=O)Cc2cccs2)n1 | -11.7
62 | CC(C)OCCN1CCC(C(=O)c2cc(F)ccc2F)CC1 | 25
63 | C[C@H]1CN(Cc2cccc(F)c2)C[C@@]12CCN(CC(=O)N(C)C)C2=O | -5.99
64 | Cc1nc(C(=O)N2CCCC(c3nc(C(C)C)cs3)C2)c[nH]1 (stereo not drawn) | 12.6
65 | c1cnc(NCc2cncc3c2CCN(CC2CC2)C3)nc1 | 3.44
66 | CN(Cc1cnn(C)c1)C1CCCN(Cc2noc(C3CC3)n2)C1 (stereo not drawn) | 50.1
67 | Cc1cc(C(=O)NCc2ccnc(OCC(F)(F)F)c2)no1 | -9.23
68 | Cc1nnc2n1CCN(c1nc3ccccc3o1)C2 | 1.55
69 | CC(=O)N1CCN(c2cc(-n3cnc(C)c3C)nc(C)n2)CC1 | -6.25

Row | SMILES | cytotoxicity at 70.5 h [%]
70 | COC(=O)c1ccc(-c2ccc(/C=C3\C(=O)NC(=N)N3C)o2)cc1 | 12.1
71 | O=C(NC[C@H]1OC[C@@H](NCc2ccc(F)cc2)[C@@H]1O)c1ccncc1 | 0.548
72 | CN([C@@H]1CC[C@@H](N2CCOCC2)[C@@H]1O)S(=O)(=O)c1ccccc1 | -10.3
73 | O=C(N1CCCCC1)N1CCN(c2ccc(Cl)nn2)C(=O)C1 | -5.68
74 | Cc1nc2ccccc2c(=O)n1CCCC(=O)N1CCNC(=O)CC1 | 2.21
75 | CC1CCC(NS(=O)(=O)CC(=O)Nc2ccc(N3CCCC3)cn2)CC1 (stereo not drawn) | -5.53
76 | CC(C)Oc1ccc(C(=O)N2CCCSCC2CN(C)C)cc1 (stereo not drawn) | 26.1
77 | O=C(CN1CCN(C(=O)Cc2ccc3c(c2)OCCO3)CC1)NC1CC1 | -12.7
78 | CCN(C)C(=O)Nc1cc(F)c(OC)cc1F | 18.4
79 | Cc1cc(C)n(CC2CN(CCOc3ccccc3F)CCO2)n1 (stereo not drawn) | -2.73
80 | Cc1noc([C@H]2COC[C@H]3CN(C(=O)Cc4ccsc4)C[C@H]32)n1 | -20.1
81 | O=C(N1CCCC1)N1C[C@@H]2CN(Cc3ccoc3)CCO[C@@H]2C1 | -11.3
82 | Cc1nn(C)c(N(C)C)c1CNCCOc1ccc2c(c1)OCO2 | -4.86
83 | COCCN(C)C(=O)c1nc2c(s1)CCCN2C(=O)C1CC1 | -3.1
84 | CN(C)c1cccc(C2CCCN2S(N)(=O)=O)c1 (stereo not drawn) | -1.57
85 | CN(C)C(=O)Cn1c(C2CC2)c(CN2CCOCC2)c2cccnc21 | -1.8
86 | COc1ccc(C(=O)c2cnc(C(C)C)n2C)cc1 | 17.7
87 | CN(C)c1ncnc2c1CCN(c1cccc(F)c1)CC2 | -3.26
88 | O=C(NCCc1ccc(F)cc1)NCC(O)c1cccc(F)c1 (stereo not drawn) | 23.3
89 | O=C([C@@H]1CCO[C@@H]2CCN(Cc3cccnc3)C[C@H]21)N1CCCCO1 | -13.8
90 | CN(C1CCCCC1)S(=O)(=O)NCC1Cc2ccccc2O1 (stereo not drawn) | -1.4
91 | CCc1cc(CNC(=O)N(C2CC2)C(C)c2ccco2)[nH]n1 (stereo not drawn) | -5.28
92 | CN(Cc1cnn(C)c1)C(=O)CN1CCCC(Cn2cncn2)C1 (stereo not drawn) | 48

Row | SMILES | cytotoxicity at 70.5 h [%]
93 | O=C1CO[C@H]2CN(Cc3ccccc3Br)C[C@@H]2N1 | 20.8
94 | COCCC(=O)N1CC2(CCN(Cc3ccncc3)CC2)C1 | -1.69
95 | CCc1c(C)sc2ncnc(N3CC[C@@H](N4CCOCC4)[C@H](O)C3)c12 | -4.12
96 | COCc1ccc(C(=O)N(CCC#N)Cc2ccccn2)cc1 | -3.02
97 | c1ccc(Cc2nc(CNCCn3cccn3)cs2)cc1 | 1.06
98 | Cc1ccc(CN2CCc3nnc(COCCN(C)C)n3CC2)o1 | -11.2
99 | Cc1noc(COCC(=O)Nc2ccc(Br)c(C)n2)n1 | 24.3
100 | CN1CCN(c2ccc3ccc(C(=O)N4CCCCO4)cn23)CC1 | -6.94
101 | O=C(CO)N1CCC(F)(F)C2(CCN(c3ccccc3)C2)C1 (stereo not drawn) | 1.4
102 | Cc1nc(-c2ccsc2)ccc1C(=O)N(C)CC1CC1 | -7.16
103 | CN(Cc1cccc(F)c1)C(=O)CN1CCCC(Cn2cncn2)C1 (stereo not drawn) | 15.6
104 | Cc1oncc1C(=O)N1CCC2(CC1)CC(N1CCOCC1)C2 | -11.3
105 | CCCN(CCO)C(=O)C1CCC(=O)N(Cc2ccc(Cl)cc2)C1 (stereo not drawn) | -0.953
106 | CN1CCN(S(=O)(=O)c2cccc(F)c2)c2cnccc21 | -2.79
107 | O=C(COCC1CC1)Nc1ncn(CC(=O)N2CCCCCC2)n1 | -3.31
108 | CCCNCc1cn(C)nc1-c1cccnc1 | -7.26
109 | Cc1cn2c(n1)CCC(NC(=O)c1cc(C(C)C)no1)C2 (stereo not drawn) | -7.72
110 | Cc1ccc(S(=O)(=O)NC(=O)CCOCC(C)C)s1 | 8.21
111 | COCC(=O)NC1CC2(CCN(CCO)CC2)c2ccccc21 (stereo not drawn) | 8.06
112 | O=c1ccncn1Cc1csc(C2CC2)n1 | -3.74
113 | COc1ccc(OC)c(NC(=O)CSc2ccc3nncn3n2)c1 | -8.56

— ChEMBL document CHEMBL3507680, “University of Dundee, Gates Library screen for HepG2 cell viability”
